Reference: US20240148821A1, “PHARMACEUTICAL USE OF CYCLIC PEPTIDE COMPOUND” (CHUGAI SEIYAKU KABUSHIKI KAISHA, priority 2021, published 2024)
Bridge positions count the residues as written; N and C are the ends. Square brackets hold non-standard residues; d marks the D form. Peptide text beside a SMILES is read from it. * marks the point of attachment. hPhe(3-Cl-4-CF3) = N[C@@H](CCc1ccc(C(F)(F)F)c(Cl)c1)C(=O)O; NMeGly(cBu) = CN[C@H](C(=O)O)C1CCC1; NMeCha = CN[C@@H](CC1CCCCC1)C(=O)O; NMeGly(cPr) = CN[C@H](C(=O)O)C1CC1; NMeF = CN[C@@H](Cc1ccccc1)C(=O)O; NMeD = CN[C@@H](CC(=O)O)C(=O)O; NMeL = CN[C@@H](CC(C)C)C(=O)O; NMeNle = CCCC[C@H](NC)C(=O)O; NMeNva = CCC[C@H](NC)C(=O)O; NMeV = CN[C@H](C(=O)O)C(C)C; d(β3hA) = C[C@@H](N)CC(=O)O; NMeAbu = CC[C@H](NC)C(=O)O; NMeA = CN[C@@H](C)C(=O)O; Piperidide = C1CCN(*)CC1; Ac5c = NC1(C(=O)O)CCCC1; Aze = O=C(O)[C@@H]1CCN1; Sar = CNCC(=O)O

Biological target: protein-protein interaction between Kras and SOS1 (biotin-tagged human Kras loaded with GDP, His-tagged human SOS1) (Homo sapiens (Human), UniProt P01116, G12D)
Experiment: Protein-protein interaction inhibition between Kras and SOS1 (KrasG12D-SOS PPI) using AlphaScreen;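 note: kras produced in E. coli, Ni-coupled donor beads and streptavidin acceptor beads, excitation 680 nm with emission detected at 520–620 nm via singlet oxygen transfer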
Format: biochemical
Details: AlphaScreen; biotin-tagged human Kras loaded with GDP, His-tagged human SOS1; read-out: KRAS G12D-SOS PPI IC50

| SMILES | IC50 [nM] |
| --- | --- |
| CC[C@H](C)[C@@H]1NC(=O)[C@H](CC(C)C)N(C)C(=O)C[C@@H](C(=O)N2CCCCC2)N(C)C(=O)[C@H](C(C)C)N(C)C(=O)C2(CCCC2)NC(=O)[C@@H]2CCCN2C(=O)[C@H](CCc2ccc(C(F)(F)F)c(Cl)c2)NC(=O)CN(C)C(=O)[C@H](CC2CCCCC2)N(C)C(=O)[C@@H]2CCN2C(=O)[C@H](C2CCC2)N(C)C1=O [Compound 1554] ([NMeL]I[NMeGly(cBu)][Aze][NMeCha][Sar][hPhe(3-Cl-4-CF3)]P[Ac5c][NMeV][NMeD]-Piperidide; lactam N-11) | 200 |
| CC[C@H](C)[C@@H]1NC(=O)[C@H](CC(C)C)N(C)C(=O)C[C@@H](C(=O)N2CCCCC2)N(C)C(=O)[C@H](C(C)C)N(C)C(=O)C2(CCCC2)NC(=O)[C@@H]2CCCN2C(=O)[C@H](CCc2ccc(C(F)(F)F)c(Cl)c2)NC(=O)CN(C)C(=O)[C@H](CC2CCCCC2)N(C)C(=O)[C@@H]2CCN2C(=O)[C@H](CC(C)C)N(C)C1=O [Compound 1558] ([NMeL]I[NMeL][Aze][NMeCha][Sar][hPhe(3-Cl-4-CF3)]P[Ac5c][NMeV][NMeD]-Piperidide; lactam N-11) | 71 |
| CCC[C@H]1C(=O)N2CC[C@H]2C(=O)N(C)[C@@H](CC2CCCCC2)C(=O)N(C)CC(=O)N[C@@H](CCc2ccc(C(F)(F)F)c(Cl)c2)C(=O)N2CCC[C@H]2C(=O)NC2(CCCC2)C(=O)N(C)[C@@H](C(C)C)C(=O)N[C@H](C)CC(=O)N(C)[C@@H](CC(C)C)C(=O)N[C@@H]([C@@H](C)CC)C(=O)N1C [Compound 1560] (cyclo([Ac5c][NMeV][d(β3hA)][NMeL]I[NMeNva][Aze][NMeCha][Sar][hPhe(3-Cl-4-CF3)]P)) | 160 |
| CC[C@H](C)[C@@H]1NC(=O)[C@H](CC(C)C)N(C)C(=O)C[C@@H](C(=O)N2CCCCC2)N(C)C(=O)[C@H](C(C)C)N(C)C(=O)C2(CCCC2)NC(=O)[C@@H]2CCCN2C(=O)[C@H](CCc2ccc(C(F)(F)F)c(Cl)c2)NC(=O)CN(C)C(=O)[C@H](CC2CCCCC2)N(C)C(=O)[C@@H]2CCN2C(=O)[C@H](Cc2ccccc2)N(C)C1=O [Compound 1561] ([NMeL]I[NMeF][Aze][NMeCha][Sar][hPhe(3-Cl-4-CF3)]P[Ac5c][NMeV][NMeD]-Piperidide; lactam N-11) | 33 |
| CCC[C@H]1C(=O)N[C@@H]([C@@H](C)CC)C(=O)N(C)[C@@H](C)C(=O)N2CC[C@H]2C(=O)N(C)[C@@H](CC2CCCCC2)C(=O)N(C)CC(=O)N[C@@H](CCc2ccc(C(F)(F)F)c(Cl)c2)C(=O)N2CCC[C@H]2C(=O)NC2(CCCC2)C(=O)N(C)[C@@H](C(C)C)C(=O)N[C@H](C)CC(=O)N1C [Compound 1564] (cyclo([Ac5c][NMeV][d(β3hA)][NMeNva]I[NMeA][Aze][NMeCha][Sar][hPhe(3-Cl-4-CF3)]P)) | 38 |
| CCCC[C@H]1C(=O)N[C@@H]([C@@H](C)CC)C(=O)N(C)[C@@H](C)C(=O)N2CC[C@H]2C(=O)N(C)[C@@H](CC2CCCCC2)C(=O)N(C)CC(=O)N[C@@H](CCc2ccc(C(F)(F)F)c(Cl)c2)C(=O)N2CCC[C@H]2C(=O)NC2(CCCC2)C(=O)N(C)[C@@H](C(C)C)C(=O)N[C@H](C)CC(=O)N1C [Compound 1568] (cyclo([Ac5c][NMeV][d(β3hA)][NMeNle]I[NMeA][Aze][NMeCha][Sar][hPhe(3-Cl-4-CF3)]P)) | 94 |
| CC[C@H](C)[C@@H]1NC(=O)[C@H](CC(C)C)N(C)C(=O)C[C@@H](C(=O)N2CCCCC2)N(C)C(=O)[C@H](C(C)C)N(C)C(=O)C2(CCCC2)NC(=O)[C@@H]2CCCN2C(=O)[C@H](CCc2ccc(C(F)(F)F)c(Cl)c2)NC(=O)CN(C)C(=O)[C@H](CC2CCCCC2)N(C)C(=O)[C@@H]2CCN2C(=O)[C@H](CC)N(C)C1=O [Compound 1569] ([NMeL]I[NMeAbu][Aze][NMeCha][Sar][hPhe(3-Cl-4-CF3)]P[Ac5c][NMeV][NMeD]-Piperidide; lactam N-11) | 16 |
| CC[C@H](C)[C@@H]1NC(=O)[C@H](CC(C)C)N(C)C(=O)C[C@@H](C)NC(=O)[C@H](C(C)C)N(C)C(=O)C2(CCCC2)NC(=O)[C@@H]2CCCN2C(=O)[C@H](CCc2ccc(C(F)(F)F)c(Cl)c2)NC(=O)CN(C)C(=O)[C@H](CC2CCCCC2)N(C)C(=O)[C@@H]2CCN2C(=O)[C@H](C2CC2)N(C)C1=O [Compound 1586] (cyclo([Ac5c][NMeV][d(β3hA)][NMeL]I[NMeGly(cPr)][Aze][NMeCha][Sar][hPhe(3-Cl-4-CF3)]P)) | 59 |
| CC[C@H](C)[C@@H]1NC(=O)[C@H](CC(C)C)N(C)C(=O)C[C@@H](C(=O)N2CCCCC2)N(C)C(=O)[C@H](C(C)C)N(C)C(=O)C2(CCCC2)NC(=O)[C@@H]2CCCN2C(=O)[C@H](CCc2ccc(C(F)(F)F)c(Cl)c2)NC(=O)CN(C)C(=O)[C@H](CC2CCCCC2)N(C)C(=O)[C@@H]2CCN2C(=O)[C@H](C(C)C)N(C)C1=O [Compound 1592] ([NMeL]I[NMeV][Aze][NMeCha][Sar][hPhe(3-Cl-4-CF3)]P[Ac5c][NMeV][NMeD]-Piperidide; lactam N-11) | 210 |
| CC[C@H](C)[C@@H]1NC(=O)[C@H](CC(C)C)N(C)C(=O)C[C@@H](C)NC(=O)[C@H](C(C)C)N(C)C(=O)C2(CCCC2)NC(=O)[C@@H]2CCCN2C(=O)[C@H](CCc2ccc(C(F)(F)F)c(Cl)c2)NC(=O)CN(C)C(=O)[C@H](CC2CCCCC2)N(C)C(=O)[C@@H]2CCN2C(=O)[C@H](CC)N(C)C1=O [Compound 1593] (cyclo([Ac5c][NMeV][d(β3hA)][NMeL]I[NMeAbu][Aze][NMeCha][Sar][hPhe(3-Cl-4-CF3)]P)) | 140 |
